Each structure is given as a SMILES string.

The test deals with K562 cells. The experiment in a line: Inhibitory effect of compounds on proliferation of K562 cells (CCK-8). In kind it is cell-based. To be noted: Homo sapiens, 72 h with compound, CCK-8, 5% serum. How it is done:
K562 cells in logarithmic growth phase and good cell condition were added to a centrifuge tube and centrifuged at 1000 rpm for 5 min in a low speed centrifuge. […] The cells were seeded on a 96-well plate at 100 µL/well using a multi-channel pipette and cultured in a cell incubator at 37° ° C. 5% CO2 and saturated humidity. […] Inhibition rate (%)=(mean value of negative control group−mean value of experimental group)/(mean value of negative control group−mean value of blank group)×100%. A dose-response curve was fitted by four-parameter analysis, with the logarithm of compound concentration serving as abscissa and inhibition rate serving as ordinate, such that IC50 was calculated.
Take `CCn1ccc(-c2cc(C(=O)Nc3ccc(OC(F)(F)Cl)cc3)cnc2N2CCOCC2)cc1=O` [Compound 9]: the IC50 (as a rule, the concentration needed to halve the response being measured) was 9.3 nM.
For the compound `Cn1cnc(-c2cc(C(=O)Nc3ccc(OC(F)(F)Cl)cc3)cnc2N2CC(O)C2)cc1=O` [Compound 48], the IC50 was 13 nM.
As for `Cn1cnc(-c2cc(C(=O)Nc3ccc(OC(F)(F)Cl)cc3)cnc2N2C3CCC2COC3)cc1=O` [Compound 49], the IC50 came out at 10 nM.
The result for `Cn1cnc(-c2cc(C(=O)Nc3ccc(OC(F)(F)Cl)cc3)cnc2N2CC3CCC(C2)O3)cc1=O` [Compound 50] reads 10 nM; that for `Cn1cnc(-c2cc(C(=O)Nc3ccc(OC(F)(F)Cl)cc3)cnc2N2C[C@H]3C[C@@H]2CO3)cc1=O` [Compound 51], 13 nM; that for `Cn1cnc(-c2cc(C(=O)Nc3ccc(OC(F)(F)Cl)cc3)cnc2N2CC3CC(C2)O3)cc1=O` [Compound 52], 6.1 nM.
In the case of `COCCNc1ncc(C(=O)Nc2ccc(OC(F)(F)Cl)cc2)cc1-c1cc(=O)n(C)cn1` [Compound 55], the half-inhibitory concentration (IC50) amounted to 26 nM.
For the compound `C[C@H]1COCCN1c1ncc(C(=O)Nc2ccc(OC(F)(F)Cl)cc2)cc1-c1cc(=O)n(C)cn1` [Compound 57], the IC50 worked out at 59 nM.
For `CNc1ncc(C(=O)Nc2ccc(OC(F)(F)Cl)cc2)cc1-c1cc(=O)n(C)cn1` [Compound 62], the IC50 stood at 18 nM.
The result for `Cn1cnc(-c2cc(C(=O)Nc3ccc(OC(F)(F)Cl)cc3)cnc2-n2ccnc2)cc1=O` [Compound 66] reads 31 nM; that for `Cn1cnc(-c2cc(C(=O)Nc3ccc(OC(F)(F)Cl)cc3)cnc2-c2ccn[nH]2)cc1=O` [Compound 69], 47 nM.
The result for `COCCOc1ncc(C(=O)Nc2ccc(OC(F)(F)Cl)cc2)cc1-c1cc(=O)n(C)cn1` [Compound 70] reads 95 nM; that for `COc1ncc(C(=O)Nc2ccc(OC(F)(F)Cl)cc2)cc1-c1cc(=O)n(C)cn1` [Compound 71], 43 nM.
The value for `Cn1nccc1-c1ncc(C(=O)Nc2ccc(OC(F)(F)Cl)cc2)cc1-c1cc(=O)n(C)cn1` [Compound 73] was 14 nM.
Take `Cn1cnc(-c2cc(C(=O)Nc3ccc(OC(F)(F)Cl)cc3)cnc2-n2cccn2)cc1=O` [Compound 77]: the IC50 stood at 13 nM.
Consider `CN(C)c1ncc(C(=O)Nc2ccc(OC(F)(F)Cl)cc2)cc1-c1cc(=O)n(CC2CCOCC2)cn1` [Compound 78], for which the IC50 was 46 nM.
Turning to `Cn1cnc(-c2cc(C(=O)Nc3ccc(OC(F)(F)Cl)cc3)cnc2N2C[C@@H](F)[C@H](F)C2)cc1=O` [Compound 79], the IC50 worked out at 17 nM.
The value for `Cn1cnc(-c2cc(C(=O)Nc3ccc(OC(F)(F)Cl)cc3)cnc2N2CCCO2)cc1=O` [Compound 80] was 14 nM.
The value for `CON(C)c1ncc(C(=O)Nc2ccc(OC(F)(F)Cl)cc2)cc1-c1cc(=O)n(C)cn1` [Compound 81] was 10 nM.
Regarding `Cn1cc(-c2cc(C(=O)Nc3ccc(OC(F)(F)Cl)cc3)cnc2N2CCOCC2)ncc1=O` [Compound 82], the IC50 turned out to be 57 nM.
The result for `Cn1cc(-c2cc(C(=O)Nc3ccc(OC(F)(F)Cl)cc3)cnc2N2CCOCC2)ccc1=O` [Compound 84] reads 45 nM.
The value for `Cn1ncc(-c2cc(C(=O)Nc3ccc(OC(F)(F)Cl)cc3)cnc2N2C[C@H]3C[C@@H]2CO3)cc1=O` [Compound 88] was 10 nM; that for `O=C(Nc1ccc(OC(F)(F)Cl)cc1)c1cnc(N2C3COCC2C3)c(-c2cnn3c2COCC3)c1` [Compound 92] was 15 nM; that for `C[C@@H]1COCCN1c1ncc(C(=O)Nc2ccc(OC(F)(F)Cl)cc2)cc1-c1cnn2c1COCC2` [Compound 93] was 12 nM.
Regarding `CN1Cc2nc(-c3cc(C(=O)Nc4ccc(OC(F)(F)Cl)cc4)cnc3N3CC[C@@H](O)C3)[nH]c2C1=O` [Compound 95], the IC50 amounted to 39 nM.
The result for `CN1CCc2oc(-c3cc(C(=O)Nc4ccc(OC(F)(F)Cl)cc4)cnc3N3CC[C@@H](O)C3)cc2C1=O` [Compound 101] reads 10 nM.
